Target: T1, recombinant human Syk (GST-hSyk fusion protein) (Homo sapiens, UniProt P43405)
T1 construct: purchased Carna Biosciences 08-176
Test: Homogeneous Time-Resolved Fluorescence (HTRF) assay for the recombinant human Syk enzyme
Type: biochemical
Conditions: IC50 class; 10-dose titration, 25 μM ATP; read-out: rhSYK Activity
How it was run: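 GST-hSyk (5 pM) preincubated 10 min with compound (0.1% DMSO) in 15 mM Tris-HCl pH 7.5, 2 mM DTT; reaction started with 250 nM biotinylated peptide, 5 mM Mg, 25 μM ATP, 45 min, room temperature. EDTA quench, Eu-anti-phosphotyrosine/SA-APC HTRF read after 30 min; IC50 from 10-dose titration (10 μM–0.508 nM), four-parameter fit.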

SMILES	IC50 [nM]
Cc1cc(Nc2ncc(Cl)c(C)n2)cc(-c2cnn(C[C@](C)(O)CO)c2)c1 [Example 2.97, (2S)-3-(4-{3-[(5-chloro-4-methylpyrimidin-2-yl)amino]-5-methylphenyl}-1H-pyrazol-1-yl)-2-methylpropane-1,2-diol]	≤ 100
COc1nc(Nc2cc(C)cc(-c3cnn(C[C@](C)(O)CO)c3)c2)ncc1Cl [Example 2.98, (2S)-3-(4-{3-[(5-chloro-4-methoxypyrimidin-2-yl)amino]-5-methylphenyl}-1H-pyrazol-1-yl)-2-methylpropane-1,2-diol]	≤ 100
Cc1cc(Nc2nccc(C(F)(F)F)n2)cc(-c2cnn(C[C@H](O)CC#N)c2)c1 [Example 3.2, (3R)-3-hydroxy-4-[4-(3-methyl-5-{[4-(trifluoromethyl)-pyrimidin-2-yl]amino}phenyl)-1H-pyrazol-1-yl]-butanenitrile]	≤ 100
Cc1cc(Nc2nccc(C(F)(F)F)n2)cc(-c2cnn(CCC(N)=O)c2)c1 [Example 3.3]	≤ 100
Cc1cc(Nc2nccc(C(F)(F)F)n2)cc(-c2cnn(CCCN3CCNC3=O)c2)c1 [Example 3.6, 1-{3-[4-(3-methyl-5-{[4-(trifluoro-methyl)pyrimidin-2-yl]amino}-phenyl)-1H-pyrazol-1-yl]-propyl}imidazolidin-2-one]	≤ 100
Cc1cc(Nc2nccc(C(F)(F)F)n2)cc(-c2cnn(Cc3noc(C)n3)c2)c1 [Example 3.10, N-(3-methyl-5-{1-[(5-methyl-1,2,4-oxadiazol-3-yl)methyl]-1H-pyrazol-4-yl}phenyl)-4-(trifluoromethyl)-pyrimidin-2-amine]	≤ 100
Cc1cc(Nc2nccc(C(F)(F)F)n2)cc(-c2cnn(CC(=O)N3COCC3(C)C)c2)c1 [Example 3.11, N-(3-{1-[2-(4,4-dimethyl-1,3-oxazolidin-3-yl)-2-oxoethyl]-1H-pyrazol-4-yl}-5-methylphenyl)-4-(trifluoromethyl)pyrimidin-2-amine]	≤ 100
COCC(C)(C)NC(=O)Cn1cc(-c2cc(C)cc(Nc3nccc(C(F)(F)F)n3)c2)cn1 [Example 3.12, N-(2-methoxy-1,1-dimethylethyl)-2-[4-(3-methyl-5-{[4-(trifluoromethyl)pyrimidin-2-yl]amino}phenyl)-1H-pyrazol-1-yl]acetamide]	100 to 1000
Cc1cc(Nc2nccc(C(F)(F)F)n2)cc(-c2cnn(CC(=O)N3CCOCC3(C)C)c2)c1 [Example 3.13, N-(3-{1-[2-(3,3-dimethylmorpholin-4-yl)-2-oxoethyl]-1H-pyrazol-4-yl}-5-methylphenyl)-4-(trifluoromethyl)pyrimidin-2-amine]	100 to 1000
Cc1cc(Nc2nccc(C(F)(F)F)n2)cc(-c2cnn(CC(=O)N3[C@H](C)COC[C@@H]3C)c2)c1 [Example 3.14, N-[3-(1-{2-[(3r,5s)-3,5-dimethyl-morpholin-4-yl]-2-oxoethyl}-1H-pyrazol-4-yl)-5-methylphenyl]-4-(trifluoromethyl)-pyrimidin-2-amine]	100 to 1000
Cc1cc(Nc2nccc(C(F)(F)F)n2)cc(-c2cnn(CC(=O)N3[C@H](C)COC[C@H]3C)c2)c1 [Example 3.15, N-[3-(1-{2-[(3r,5r)-3,5-dimethylmorpholin-4-yl]-2-oxoethyl}-1H-pyrazol-4-yl)-5-methylphenyl]-4-(trifluoromethyl)-pyrimidin-2-amine]	≤ 100
Cc1cc(Nc2nccc(C(F)(F)F)n2)cc(-c2cnn(CCNC(N)=O)c2)c1 [Example 3.16, 1-{2-[4-(3-methyl-5-{[4-(trifluoromethyl)-pyrimidin-2-yl]-amino}phenyl)-1H-pyrazol-1-yl]ethyl}urea]	≤ 100
Cc1cc(Nc2nccc(C(F)(F)F)n2)cc(-c2cnn(CCOCCO)c2)c1 [Example 3.19]	≤ 100
CC(=O)Cn1cc(-c2cc(C)cc(Nc3nccc(C(F)(F)F)n3)c2)cn1 [Example 3.22, 1-[4-(3-methyl-5-{[4-(trifluoromethyl)pyrimidin-2-yl]amino}phenyl)-1H-pyrazol-1-yl]propan-2-one]	≤ 100
Cc1cc(Nc2nccc(C(F)(F)F)n2)cc(-c2cnn(Cc3cc(C)no3)c2)c1 [Example 3.25, N-(3-methyl-5-{1-[(3-methylisoxazol-5-yl)methyl]-1H-pyrazol-4-yl}phenyl)-4-(trifluoromethyl)-pyrimidin-2-amine]	≤ 100
Cc1cc(Nc2nccc(C(F)(F)F)n2)cc(-c2cnn(CC(=O)N3CCC3)c2)c1 [Example 3.26, N-{3-[1-(2-azetidin-1-yl-2-oxoethyl)-1H-pyrazol-4-yl]-5-methylphenyl}-4-(trifluoromethyl)pyrimidin-2-amine]	≤ 100
COC(=O)C(C)n1cc(-c2cc(C)cc(Nc3nccc(C(F)(F)F)n3)c2)cn1 (stereo not shown) [Example 3.29, methyl 2-[4-[3-methyl-5-{[4-(trifluoromethyl)-pyrimidin-2-yl]amino}-phenyl)-1H-pyrazol-1-yl]propanoate]	≤ 100

More lines, now with the values ahead:

IC50 [nM]	SMILES
≤ 100	CC(O)c1ccnc(Nc2cccc(-c3cnn(C[C@](C)(O)CO)c3)c2)n1 (stereo partly drawn) [Example 2.93, (2S)-3-[4-(3-{[4-(1-hydroxyethyl)pyrimidin-2-yl]amino}phenyl)-1H-pyrazol-1-yl]-2-methylpropane-1,2-diol]
≤ 100	Cc1cc(Nc2ncc(F)c(C)n2)cc(-c2cnn(C[C@](C)(O)CO)c2)c1 [Example 2.94, (2S)-3-(4-{3-[(5-fluoro-4-methylpyrimidin-2-yl)amino]-5-methylphenyl}-1H-pyrazol-1-yl)-2-methylpropane-1,2-diol]
100 to 1000	Cc1ccnc(Nc2cccc(-c3cnn(C[C@](C)(O)CO)c3)c2)n1 [Example 2.95, (2S)-2-methyl-3-(4-{3-[(4-methylpyrimidin-2-yl)amino]phenyl}-1H-pyrazol-1-yl)propane-1,2-diol]
≤ 100	Cc1cc(Nc2nccc(OC(C)C)n2)cc(-c2cnn(C[C@](C)(O)CO)c2)c1 [Example 2.96, (2S)-2-methyl-3-[4-(3-methyl-5-{[4-(1-methylethoxy)pyrimidin-2-yl]amino}phenyl)-1H-pyrazol-1-yl]propane-1,2-diol]
≤ 100	Cc1cc(Nc2nccc(C(F)(F)F)n2)cc(-c2cnn(C[C@@H](C)CO)c2)c1 [Example 3.4, (2r)-2-methyl-3-[4-(3-methyl-5-{[4-(trifluoromethyl)-pyrimidin-2-yl]-amino}phenyl)-1H-pyrazol-1-yl]-propan-1-ol]
≤ 100	Cc1cc(Nc2nccc(C(F)(F)F)n2)cc(-c2cnn(C[C@H](C)CO)c2)c1 [Example 3.5, (2s)-2-methyl-3-[4-(3-methyl-5-{[4-(trifluoromethyl)-pyrimidin-2-yl]amino}-phenyl)-1H-pyrazol-1-yl]-propan-1-ol]
≤ 100	CC(=O)N1CCN(C(=O)Cn2cc(-c3cc(C)cc(Nc4nccc(C(F)(F)F)n4)c3)cn2)CC1 [Example 3.7, N-(3-{1-[2-(4-acetylpiperazin-1-yl)-2-oxoethyl]-1H-pyrazol-4-yl}-5-methylphenyl)-4-(trifluoromethyl)-pyrimidin-2-amine]
≤ 100	Cc1cc(Nc2nccc(C(F)(F)F)n2)cc(-c2cnn(CC(=O)NC(C)(C)C)c2)c1 [Example 3.8, N-tert-butyl-2-[4-(3-methyl-5-{[4-(trifluoromethyl)pyrimidin-2-yl]amino}-phenyl)-1H-pyrazol-1-yl]acetamide]
≤ 100	Cc1cc(Nc2nccc(C(F)(F)F)n2)cc(-c2cnn(CC3COCCO3)c2)c1 (stereo not shown) [Example 3.9, N-{3-[1-(1,4-dioxan-2-ylmethyl)-1H-pyrazol-4-yl]-5-methyl-phenyl}-4-(trifluoro-methyl)pyrimidin-2-amine]
≤ 100	Cc1cc(Nc2nccc(C(F)(F)F)n2)cc(-c2cnn(C3CCOC3=O)c2)c1 (stereo not shown) [Example 3.17, 3-[4-(3-methyl-5-{[4-(trifluoromethyl)pyrimidin-2-yl]amino}-phenyl)-1H-pyrazol-1-yl]dihydrofuran-2(3h)-one]
≤ 100	Cc1cc(Nc2nccc(C(F)(F)F)n2)cc(-c2cnn(CC3CCO3)c2)c1 (stereo not shown) [Example 3.18, N-{3-methyl-5-[1-(oxetan-2-ylmethyl)-1H-pyrazol-4-yl]-phenyl}-4-(trifluoro-methyl)-pyrimidin-2-amine]
≤ 100	Cc1cc(Nc2nccc(C(F)(F)F)n2)cc(-c2cnn(CCCN)c2)c1 [Example 3.20, N-{3-[1-(3-aminopropyl)-1H-pyrazol-4-yl]-5-methylphenyl}-4-(trifluoromethyl)pyrimidin-2-amine]
≤ 100	Cc1cc(Nc2nccc(C(F)(F)F)n2)cc(-c2cnn(CC3CC3)c2)c1 [Example 3.21, N-{3-[1-(cyclopropylmethyl)-1H-pyrazol-4-yl]-5-methylphenyl}-4-(trifluoromethyl)pyrimidin-2-amine]
100 to 1000	CCOC(Cn1cc(-c2cc(C)cc(Nc3nccc(C(F)(F)F)n3)c2)cn1)OCC [Example 3.23, N-{3-[1-(2,2-diethoxyethyl)-1H-pyrazol-4-yl]-5-methylphenyl}-4-(trifluoromethyl)pyrimidin-2-amine]
≤ 100	Cc1cc(Nc2nccc(C(F)(F)F)n2)cc(-c2cnn(Cc3nnc(C)o3)c2)c1 [Example 3.24, N-(3-methyl-5-{1-[(5-methyl-1,3,4-oxadiazol-2-yl)methyl]-1H-pyrazol-4-yl}phenyl)-4-(trifluoromethyl)pyrimidin-2-amine]
≤ 100	Cc1cc(Nc2nccc(C(F)(F)F)n2)cc(-c2cnn(CC(=O)N3CCCC3)c2)c1 [Example 3.27, N-{3-methyl-5-[1-(2-oxo-2-pyrrolidin-1-ylethyl)-1H-pyrazol-4-yl]phenyl}-4-(trifluoromethyl)pyrimidin-2-amine]
≤ 100	CCC(C(=O)OC)n1cc(-c2cc(C)cc(Nc3nccc(C(F)(F)F)n3)c2)cn1 (stereo not shown) [Example 3.28, methyl 2-[4-(3-methyl-5-{[4-(trifluoromethyl)pyrimidin-2-yl]amino}-phenyl)-1H-pyrazol-1-yl]butanoate]
